Consider one compound from US20150141375A1 (priority 2009, published 2015).

One data set in a line: PK comparison, rabbit. The note with it: in vivo, 2 mg/kg, calculated from doses of 5 and 10 mg/kg, analyte = label, after CMX001. The source says:
Table 4 illustrates the PK comparison of CMX001 with CMX021 and CMX064 for mouse, rabbit and human.

For another data set, the system named is EBV. Kind of data set: Patients with EBV-associated PTLD treated with CMX001. It is filed as in vivo, human. The source says:
The first patient is a patient with a history of sickle cell anemia developed EBV-associated intracranial post-transplant lymphoproliferative disorder (PTLD). EBV was positive in the plasma (7 Dec. and 14 Dec. 2010) and brain biopsies were consistent with PTLD. In early December, the patient presented with a 3 day history of persistent headache, nausea, vomiting, and diarrhea. […] The patient was admitted to PICU. High intracranial pressure, repetitive seizures associated with apnea led to intubtion and emergency request for CMX001. The use of CMX001 in this patient with EBV-associated PTLD is ongoing since 26 Dec. 2009.
The second patient was a heart transplant recipient with EBV-associated PTLD. The patient acquired a primary EBV infection post-operatively. […] The clinical condition continued to destabilize with what was presumed to be EBV-associated encephalitis with EBV detected in the CSF, clinical and EEG-correlated seizure activity and decreased responsiveness and changes in mental status. At the time of request for CMX001, the patient was on mechanical ventilation, had evidence of both pneumonia and PTLD of their lungs, evidence of seizure activity with clinical criteria for encephalopathy being present. The patient received their first dose of CMX001, 20 mg (approximately 3.3 mg/kg) on 3 Mar. 2010, and their second dose on 7 Mar. […] The patient continued to show evidence of progressive neurologic injury. The parents withdrew support on the day following their second dose of CMX001.

In a further data set the test system is Adenovirus. Kind of data set: In vitro activity against Adenovirus (HFF; AdV 5). It is filed as cell-based.
In a further data set the test system is HCMV(AD169). Kind of data set: In vitro potency against dsDNA viruses: HCMV. It is filed as cell-based.

As a reminder, the AUC is the area under the concentration-time curve, a measure of exposure. A word on the Cmax: it is the peak of the concentration-time curve. In general, IC50 refers to the midpoint of a concentration-inhibition curve. Read a low IC50 as greater potency in that assay. For orientation: EC50 means the concentration at which the effect is half-maximal. Low values mean an effect from little substance, high ones a need for much substance.

Turning to `CCCCCCCCCCCCCCCCOCCCOP(=O)(O)CO[C@H](CO)Cn1ccc(N)nc1=O` [CMX001, Hexadecyloxypropyl-cidofovir], the AUC in “PK comparison, rabbit” was 102 ng·h/mL. In the data set “PK comparison, rabbit”, the Cmax is 18 ng/mL. In the data set on EBV (heart transplant recipient, 7 Mar. 2010 after first dose 20 mg (3 Mar. 2010: 267,338)), the EBV viral load is reported as 47,427 copies/mL. Also, the “EBV in the plasma” value in the data set on EBV (patient, 4 mg/kg twice weekly) is on record as “remains negative”. In the data set with EBV (patient, 4 mg/kg twice weekly), the tolerability entry is listed as “tolerated CMX001 well”. Also, the “Enhanced Activity” value in the data set on Adenovirus (CMX001 versus cidofovir EC50) turned out to be 65; with HCMV(AD169) (CMX001 versus cidofovir EC50), 422. Moreover, inhibition in the data set on Adenovirus (unidentified adenovirus) was half-maximal at 20 nM (IC50). For the same compound, the EC50 turned out to be 20 nM in the data set on Adenovirus (unidentified adenovirus, HFF) and 0.9 nM in the data set on HCMV(AD169) (Human betaherpesvirus 5, AD169, MRC5, MRC-5).
